The values that follow come from patent publication EP0733364A1, “MEDICINAL COMPOSITION FOR CIRCULATORY ORGAN” (NIPPON SHINYAKU COMPANY, LIMITED, priority 1993, dated 1995).

What all share (assay type): in vivo, beagle dogs
The test system of one series is fibrin clot. Kind of series: Fibrinolytic action: lysis of 125I-fibrin clot made from plasma obtained 48 hr after drug administration. As to conditions: for Fibrinolysis (%) : (24 hr after addition of Urokinase): N 4, mean S.E. As to the method:
The plasma obtained 48 hr after drug administration in Test Example 1 was used in this test.
To 0.35 ml of plasma was added 40 µl ^125I-fibrinogen (185 kBq/ml) and the mixture was dispensed to 3 test tubes, 0.1 ml per tube. To each of the test tubes was added 10 µl each of 100 µU/ml thrombin solution and 0.5 M calcium chloride solution and, after stirring, each tube was incubated at 37°C for 30 min to prepare a fibrin clot. Then, 2% albumin-saline containing 0, 50 or 100 U of urokinase was added to the tubes, 1 ml per tube. The tubes were incubated at 37°C and at 0, 3, 6, 9, 21 and 24 hr of incubation, 50µl of the supernatant was taken in a RIA tube and using a γ-counter (Packard Japan, A5424), the amount of the ^125I-fibrin degradated product was determined.

Series [1] in a line: Observation for evaluation of diarrhea (stool property). Details: key to stool property: -: normal stool; ±: slightly soft stool; +: soft stool; ++: mild diarrhea; +++: diarrhea. As to conditions: for stool property: one line per animal. The text has this:
In Test Example 1, the stool property was monitored every day and rated on the 5-point scale of -: normal, ±: slightly soft stool, +: soft stool, ++: mild diarrhea, +++: diarrheal.

The subject of another series is α2-PI. As to the kind of experiment: Assay of α2-PI activity in plasma after oral administration. As to conditions: oral once a day for 3 days (0, 24, 48 hr), 116 mg/kg compound A as printed, Fig. 1. The method, then: The drugs were administered to groups of 4 beagle dogs (22-23 months old, body weights 9-11 kg) and the blood was serially sampled (-120, 0, 6, 24, 48, 72, 96, and 168 hr) for assay of α2-PI activity. One capsule of either compound A or compound B was administered orally once a day for 3 days (at 0, 24, and 48 hr) [116 mg/kg compound A or 300 mg/kg compound B (equimolar to compound A)]. Blood sampling was carried out by drawing 9 volumes of blood into a vacuum blood sampling tube containing 1 volume of 3.8% sodium citrate and, after gentle mixing, each blood sample was centrifuged (3,000 rpm x 10 min.) to separate the plasma. The plasma α2-PI activity was assayed with Test Team APL 2 Kit using the cleavage of the synthetic chromogenic substrate S-2251 as an indicator by plasmin.

The structures appear in SMILES notation. Several values for one entry are separate records, joined by “and”; a condition that tells them apart may be missing. Identical values can stand only once.

`CN1C[C@H](O)[C@@H](O)[C@H](O)[C@H]1CO` [Compound B, N-methylmoranoline, reference compound]: the “Fibrinolysis (%) : (24 hr after addition of Urokinase)” value in the series on fibrin clot (Urokinase 0U, 116mg/kg) is on record as 172 ± 56%; with fibrin clot (Urokinase 50U, 116mg/kg), 213 ± 27%; in the series with fibrin clot (Urokinase 100U, 116mg/kg), 340 ± 49%. For the same molecule, the stool property result is “+++ (2×) and ++ and +” in series [1] (Day 1, 116mg/kg oral once a day for 3 days, 116 mg/kg); “+++ (3×) and + +” in series [1] (Day 3, 116mg/kg oral once a day for 3 days, 116 mg/kg); “+ (2×) and ± (2×)” in series [1] (Day 4, 116mg/kg oral once a day for 3 days, 116 mg/kg); “-” in series [1] (Day 7, 116mg/kg oral once a day for 3 days).
Turning to `CCCC(=O)OCC1C(OC(=O)CCC)C(OC(=O)CCC)C(OC(=O)CCC)CN1C` (centres unmarked) [Compound A, 2,3,4,5-tetra-O-butyryl-N-methyl-moranoline], in the series with α2-PI, the α2-PI activity result was “decreased α2-PI activity significantly”. The “Fibrinolysis (%) : (24 hr after addition of Urokinase)” value came out at 143 ± 27% with fibrin clot (Urokinase 0U, 300mg/kg); 278 ± 31% with fibrin clot (Urokinase 50U, 300mg/kg); 342 ± 30% with fibrin clot (Urokinase 100U, 300mg/kg). Moreover, in the series on fibrin clot (urokinase addition level of 100 U), the fibrinolytic activity result is “significantly accelerated the fibrinolytic activity”. For the same molecule, the stool property entry in series [1] (Day 1, 300mg/kg oral once a day for 3 days, 300 mg/kg) was “+ and - and ± and +++”; in series [1] (Day 3, 300mg/kg oral once a day for 3 days, 300 mg/kg) it was “+++ and ± (2×) and -”; in series [1] (Day 4, 300mg/kg oral once a day for 3 days, 300 mg/kg) it was “± (2×) and - (2×)”; in series [1] (Day 7, 300mg/kg oral once a day for 3 days, 300 mg/kg), “± and - (3×)”. Moreover, the diarrhea-inducing effect result in series [1] (summary of Table 2) is given as “less remarkable in diarrhea-inducing effect than compound B”.
